Experimental data: patent US9487529B2, “Macrocyclic compounds as ALK, FAK and JAK2 inhibitors” (Cephalon, Inc., priority 2011, dated 2016)
Structures can show the parent of a compound that is named as a salt. Where two headings read alike, the source gives them in different places.

Columns and labels:
Format in all cases: biochemical
[1] = target: T1, baculovirus-expressed JAK2 (Homo sapiens, UniProt O60674); assay: JAK2 Kinase Assay (TRF detection); settings: 0.2 μM ATP; average of two or more determinations; class symbols
T1 construct: host or cells: baculovirus expression system
T1 sequence (O60674 whole entry): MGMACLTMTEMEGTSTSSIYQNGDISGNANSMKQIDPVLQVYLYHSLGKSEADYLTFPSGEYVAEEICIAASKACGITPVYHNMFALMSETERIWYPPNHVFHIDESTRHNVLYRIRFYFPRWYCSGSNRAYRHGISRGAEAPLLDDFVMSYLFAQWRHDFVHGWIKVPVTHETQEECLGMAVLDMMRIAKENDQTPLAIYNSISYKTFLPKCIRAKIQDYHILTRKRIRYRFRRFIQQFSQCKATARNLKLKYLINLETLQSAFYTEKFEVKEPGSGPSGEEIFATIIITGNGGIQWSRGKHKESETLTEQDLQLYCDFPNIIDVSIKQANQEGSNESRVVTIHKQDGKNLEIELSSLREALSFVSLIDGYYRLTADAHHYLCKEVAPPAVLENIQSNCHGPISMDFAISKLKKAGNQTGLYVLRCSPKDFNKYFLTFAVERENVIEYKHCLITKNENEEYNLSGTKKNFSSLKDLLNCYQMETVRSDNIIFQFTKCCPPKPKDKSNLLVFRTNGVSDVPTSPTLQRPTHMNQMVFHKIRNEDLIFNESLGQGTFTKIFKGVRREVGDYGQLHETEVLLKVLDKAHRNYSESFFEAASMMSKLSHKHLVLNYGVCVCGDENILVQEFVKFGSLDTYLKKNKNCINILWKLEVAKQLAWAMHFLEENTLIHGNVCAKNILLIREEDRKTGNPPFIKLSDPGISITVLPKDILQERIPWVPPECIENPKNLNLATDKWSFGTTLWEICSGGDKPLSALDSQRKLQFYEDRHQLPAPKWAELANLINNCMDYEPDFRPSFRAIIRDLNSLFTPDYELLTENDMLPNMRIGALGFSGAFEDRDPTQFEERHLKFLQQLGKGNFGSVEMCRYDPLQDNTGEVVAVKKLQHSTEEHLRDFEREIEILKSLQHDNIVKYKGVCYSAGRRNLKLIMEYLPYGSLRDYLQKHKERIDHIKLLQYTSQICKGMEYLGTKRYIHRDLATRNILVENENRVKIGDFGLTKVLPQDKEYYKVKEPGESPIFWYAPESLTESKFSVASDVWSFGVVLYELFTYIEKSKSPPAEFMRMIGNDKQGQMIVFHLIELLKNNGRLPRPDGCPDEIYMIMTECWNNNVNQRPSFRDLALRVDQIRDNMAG
Description: Compounds were tested for their ability to inhibit the kinase activity of baculovirus-expressed JAK2 using the TRF detection system. IC50 runs were conducted in 96-well Costar high binding plates (Corning Costar #3922, Corning, N.Y.). The plates were coated first with 100 μL/well of 10 μg/mL Neutravidin (Pierce #31000, Rockford, Ill.) in TBS at 37° C. for 2 hours, followed by 100 μL/well of 1 μg/mL 15-mer peptide substrate (biotinyl-amino-hexanoyl-EQEDEPEGDYFEWLE-amide, Infinity Biotech Research and Resource, Aston, Pa.) at 37° C. for another hour. The JAK2 assay mixture (total volume=100 μL/well) consisting of 20 mM HEPES, pH 7.2, 0.2 μM ATP, 1 mM MnCl2, 0.1% BSA, and test compound (diluted in DMSO; 2.5% DMSO final in assay) was then added to the assay plate. Enzyme (15 ng/ml JAK2) was added and the reaction was allowed to proceed at room temperature for 20 minutes. Detection of the phosphorylated product was performed by adding 100 μL/well of Eu—N1 labeled PY100 antibody (PerkinElmer Life Sciences #AD0041, Boston, Mass.). Incubation at the room temperature then proceeded for 1 hour, followed by addition of 100 μl enhancement solution (PerkinElmer Life Sciences #1244-105, Boston, Mass.). The plate was gently agitated and after thirty minutes, the fluorescence of the resulting solution was measured using the PerkinElmer EnVision™ 2102 (or 2104) multi-label plate reader.
(§1) Data analysis was performed using ActivityBase (IDBS, Guilford, UK). IC50 values were calculated by plotting percent inhibition versus log10 of the concentration of compound and fitting to the nonlinear regression sigmoidal dose-response (variable slope) equation in XLFit (IDBS, Guilford, UK).

[2] = target: T2, baculovirus-expressed ALK (Homo sapiens, UniProt Q9UM73); assay: ALK Kinase Assay (ELISA/TRF); settings: 1 μM ATP (Km level)
T2 construct: host or cells: baculovirus expression system
T2 sequence (Q9UM73 19-1620): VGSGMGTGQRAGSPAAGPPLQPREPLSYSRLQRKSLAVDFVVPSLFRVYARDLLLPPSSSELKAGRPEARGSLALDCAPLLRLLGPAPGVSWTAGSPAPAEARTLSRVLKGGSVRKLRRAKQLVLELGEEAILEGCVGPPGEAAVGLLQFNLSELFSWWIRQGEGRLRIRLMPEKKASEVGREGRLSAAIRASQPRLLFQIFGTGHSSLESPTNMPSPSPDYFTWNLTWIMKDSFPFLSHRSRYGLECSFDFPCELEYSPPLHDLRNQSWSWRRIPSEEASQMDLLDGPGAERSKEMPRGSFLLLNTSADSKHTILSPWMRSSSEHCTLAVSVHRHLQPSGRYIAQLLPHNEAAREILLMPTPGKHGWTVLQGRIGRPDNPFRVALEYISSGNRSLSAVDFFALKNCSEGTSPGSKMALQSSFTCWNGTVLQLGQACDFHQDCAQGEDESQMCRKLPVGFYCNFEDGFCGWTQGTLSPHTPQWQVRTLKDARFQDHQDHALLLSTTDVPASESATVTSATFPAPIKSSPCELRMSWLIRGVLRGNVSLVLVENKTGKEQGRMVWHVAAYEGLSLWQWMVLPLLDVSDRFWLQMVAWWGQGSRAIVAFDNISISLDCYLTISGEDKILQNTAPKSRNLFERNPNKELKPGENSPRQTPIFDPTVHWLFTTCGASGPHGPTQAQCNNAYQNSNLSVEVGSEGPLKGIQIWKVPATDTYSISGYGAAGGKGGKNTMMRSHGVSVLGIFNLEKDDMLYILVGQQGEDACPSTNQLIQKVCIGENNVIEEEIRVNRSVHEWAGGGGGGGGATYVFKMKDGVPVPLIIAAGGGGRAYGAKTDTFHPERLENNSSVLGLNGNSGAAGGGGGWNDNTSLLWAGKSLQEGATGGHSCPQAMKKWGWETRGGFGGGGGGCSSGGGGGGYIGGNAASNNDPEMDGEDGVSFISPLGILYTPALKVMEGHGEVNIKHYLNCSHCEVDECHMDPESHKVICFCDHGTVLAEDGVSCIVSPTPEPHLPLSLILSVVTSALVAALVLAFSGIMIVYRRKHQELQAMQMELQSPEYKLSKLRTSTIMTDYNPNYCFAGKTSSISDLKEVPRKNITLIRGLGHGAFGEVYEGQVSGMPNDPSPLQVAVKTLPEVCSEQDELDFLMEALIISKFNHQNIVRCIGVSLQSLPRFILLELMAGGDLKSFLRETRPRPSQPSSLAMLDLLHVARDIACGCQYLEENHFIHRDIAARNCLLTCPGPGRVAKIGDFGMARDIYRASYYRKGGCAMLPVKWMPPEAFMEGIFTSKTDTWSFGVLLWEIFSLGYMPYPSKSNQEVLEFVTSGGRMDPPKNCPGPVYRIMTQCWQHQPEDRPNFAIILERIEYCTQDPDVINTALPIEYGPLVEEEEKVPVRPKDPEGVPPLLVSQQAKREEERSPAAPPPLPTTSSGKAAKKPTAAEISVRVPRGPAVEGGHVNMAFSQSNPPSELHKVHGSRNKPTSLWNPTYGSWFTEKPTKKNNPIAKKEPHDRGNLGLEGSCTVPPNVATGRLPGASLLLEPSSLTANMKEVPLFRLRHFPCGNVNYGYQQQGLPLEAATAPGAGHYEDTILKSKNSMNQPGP
Description: Briefly, each 96-well plate was coated with 100 μL/well of 10 μg/mL substrate (GST-PLC-γ) in Tris-buffered saline (TBS). […] The reaction was initiated by adding enzyme (30 ng/mL ALK) and was allowed to proceed at 37° C. for 15 minutes. Detection of the phosphorylated product was performed by adding 100 μL/well of Eu—N1 labeled PT66 antibody (Perkin Elmer #AD0041). […] Data analysis was performed using ActivityBase (IDBS, Guilford, UK). IC50 values were calculated by plotting percent inhibition versus log10 of the concentration of compound and fitting to the nonlinear regression sigmoidal dose-response (variable slope) equation in XLFit (IDBS, Guilford, UK).

[3] = target: T3, recombinant human FAK (Homo sapiens, UniProt Q05397); assay: FAK Enzyme Assay (TRF detection); settings: 10 μM ATP
T3 construct: purchased Invitrogen PV3832; host or cells: baculovirus expression system
T3 sequence (Q05397 whole entry): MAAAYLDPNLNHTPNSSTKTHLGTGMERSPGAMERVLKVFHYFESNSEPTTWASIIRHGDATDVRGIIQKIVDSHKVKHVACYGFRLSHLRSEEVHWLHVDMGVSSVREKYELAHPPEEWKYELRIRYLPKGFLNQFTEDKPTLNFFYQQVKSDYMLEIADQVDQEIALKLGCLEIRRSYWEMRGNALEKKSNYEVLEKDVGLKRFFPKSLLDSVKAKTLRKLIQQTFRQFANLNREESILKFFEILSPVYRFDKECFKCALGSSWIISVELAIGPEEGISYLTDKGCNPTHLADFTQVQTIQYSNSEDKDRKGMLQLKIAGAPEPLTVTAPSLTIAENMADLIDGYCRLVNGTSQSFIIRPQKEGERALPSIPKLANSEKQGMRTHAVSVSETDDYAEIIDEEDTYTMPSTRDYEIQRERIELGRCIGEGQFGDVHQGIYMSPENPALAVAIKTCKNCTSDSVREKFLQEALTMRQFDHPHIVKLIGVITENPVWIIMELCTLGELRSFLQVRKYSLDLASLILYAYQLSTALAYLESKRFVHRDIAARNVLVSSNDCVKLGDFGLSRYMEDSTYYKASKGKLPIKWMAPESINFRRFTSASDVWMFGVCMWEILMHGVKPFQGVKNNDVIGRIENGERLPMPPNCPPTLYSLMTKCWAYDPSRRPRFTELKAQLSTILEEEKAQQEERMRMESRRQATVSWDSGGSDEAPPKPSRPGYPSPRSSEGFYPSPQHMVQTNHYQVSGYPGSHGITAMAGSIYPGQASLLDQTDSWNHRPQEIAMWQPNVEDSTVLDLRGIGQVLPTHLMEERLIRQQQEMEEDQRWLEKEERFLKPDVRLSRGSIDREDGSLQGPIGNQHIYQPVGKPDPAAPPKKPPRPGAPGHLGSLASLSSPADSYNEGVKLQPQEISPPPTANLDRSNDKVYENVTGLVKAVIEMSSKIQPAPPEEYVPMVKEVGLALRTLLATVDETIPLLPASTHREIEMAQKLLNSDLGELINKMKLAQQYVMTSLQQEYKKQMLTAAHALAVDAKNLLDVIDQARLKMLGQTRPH
Description: Example compounds were tested for their ability to inhibit the kinase activity of baculovirus-expressed recombinant human FAK using the TRF detection system as described above for JAK2. IC50 runs were performed in 96-well Costar high binding plates (#3922). The plates were coated first with 100 μL/well of 10 μg/mL neutravidin in TBS at 37° C. for 2 h, followed by 100 μL/well of 1 μg/mL 15-mer peptide substrate (biotinyl-amino-hexanoyl-EQEDEPEGDYFEWLE-amide) at 37° C. for another hour. The FAK assay mixture (total volume=100 μL/well) consisting of 20 mM HEPES, pH 7.2, 10 μM ATP, 5 mM MgCl2, 0.5 mM DTT, 0.1% BSA, and test compound (diluted in DMSO; 2.5% DMSO final in assay) was then added to the assay plate. Enzyme (10 ng/mL FAK, Invitrogen #PV3832) was added and the reaction was allowed to proceed at room temperature for 30 minutes. Detection of the phosphorylated product was performed by adding 100 μL/well of Eu—N1 labeled PY100 antibody (diluted 1:75000 in antibody dilution buffer). Samples were incubated at room temperature for 1 hour, followed by addition of 100 μL enhancement solution. Plates were agitated for 10 minutes and fluorescence of the resulting solution measured using the PerkinElmer EnVision™ 2102 (or 2104) multi-label plate reader.
as §1

[4] = target: T4, human insulin receptor cytoplasmic domain (βIRCD) (Homo sapiens, UniProt P06213); assay: Insulin Receptor Kinase Assay (TRF); settings: 20 μM ATP, read-out: IR IC50
T4 construct: human insulin receptor cytoplasmic domain (βIRCD); host or cells: baculovirus expression system
T4 sequence (P06213 980-1382 limits assumed): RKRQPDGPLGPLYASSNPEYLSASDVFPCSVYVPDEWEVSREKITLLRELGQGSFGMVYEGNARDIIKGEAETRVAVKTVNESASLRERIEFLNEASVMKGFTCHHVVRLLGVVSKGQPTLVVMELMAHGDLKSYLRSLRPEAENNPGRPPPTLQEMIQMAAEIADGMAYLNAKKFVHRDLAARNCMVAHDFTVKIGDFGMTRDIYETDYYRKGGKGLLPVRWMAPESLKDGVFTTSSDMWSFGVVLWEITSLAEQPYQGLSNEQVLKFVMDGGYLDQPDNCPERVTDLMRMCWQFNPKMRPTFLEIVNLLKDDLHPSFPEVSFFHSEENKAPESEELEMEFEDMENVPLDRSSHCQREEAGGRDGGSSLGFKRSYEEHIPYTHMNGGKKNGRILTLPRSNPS
Description: Example compounds were tested for their ability to inhibit the kinase activity of baculovirus-expressed human insulin receptor cytoplasmic domain (βIRCD) using the TRF assay as described above for ALK. Phosphorylation of the substrate, recombinant GST-PLC-γ, was detected with a europium-labeled anti-phosphotyrosine antibody and measured by TRF. Each 96-well plate (Greiner#655074) was coated with 100 μL/well of 20 μg/mL substrate solution in TBS. The IR assay mixture (total volume=100 μL/well) consisting of 20 mM HEPES (pH 7.2), 20 μM ATP, 5 mM MnCl2, 0.1% BSA, and test compound (diluted in DMSO; 2.5% DMSO final in assay) was added to the assay plates. Enzyme (20 ng/mL βIRCD) was added and the reaction was allowed to proceed at room temperature for 20 minutes. Detection of the phosphorylated product was performed by adding 100 μL/well of Eu—N1 labeled PY100 antibody (PerkinElmer#AD0160; diluted 1:10,000 in TBS-T containing 0.25% BSA). Incubation at 37° C. for 1 hour was followed by addition of 50 μL enhancement solution (Wallace#1244-105). Plates were agitated for 10 minutes and the fluorescence was measured using the PerkinElmer EnVision™ 2102 or 2104 multi-label plate reader.
as §1

[5] = average of two or more determinations, class symbols

| Compound | IC50 [1] [nM] | IC50 [2, 5] [nM] | IC50 [3, 5] [nM] | IC50 [4, 5] [nM] | IC50 ([2]; given as numeric bound) [nM] | IC50 ([4]; given as numeric bound) [nM] | IC50 ([3]; given as numeric bound) [nM] |
| --- | --- | --- | --- | --- | --- | --- | --- |
| O=C1Nc2cccc(c2)Nc2ncc(Cl)c(n2)Nc2cccc1c2 [Example 1, 6,13,19-Triaza-4-chloro-7,14^1,3-dibenzena-1^2,4-pyrimidinacyclodocosaph-12-one] | 101 to 1000 | > 10000 | > 10000 | – | – | – | – |
| COc1cc(C2CCN(C)CC2)c2cc1Nc1ncc(Cl)c(n1)Nc1cc(ccc1N(C)S(C)(=O)=O)CC2 [Example 8, 6-Chloro-10-(2-methanesulfonyl-methyl-amino)-17-(1-methyl-piperidin-4-yl)-19-methoxy-2,4,8,22-tetraazatetracyclo[14.3.1.1^3,7.1^9,13]docosa-1(20),3(22),4,6,9(21),10,12,16,18-nonaene Trifluoroacetate (1:1)] | 101 to 1000 | < 10 | < 10 | 101 to 1000 | – | – | – |
| CNC(=O)c1ccc2cc1Nc1nc(ncc1Cl)Nc1ccc(N3CCN(C)CC3)c(c1)/C=C\2 [Example 16, (14Z)-6-Chloro-10-(N-methylcarboxamido)-17-(4-methylpiperazin-1-yl)-2,4,8,22-tetraazatetracyclo[14.3.1.1^3,7.1^9,13]docosa-1(20),3(22),4,6,9(21),10,12,14,16,18-decaene] | 10 to 100 | 101 to 1000 | 101 to 1000 | – | – | – | – |
| CNC(=O)c1ccc2cc1Nc1nc(ncc1Cl)Nc1ccc(N3CCN(C)CC3)c(c1)CC2 [Example 17, 6-Chloro-10-(N-methylcarboxamido)-17-(4-methylpiperazin-1-yl)-2,4,8,22-tetraazatetracyclo[14.3.1.1^3,7.1^9,13]docosa-1(20),3(22),4,6,9(21),10,12,16,18-nonaene Trifluoroacetate (1:1)] | < 10 | – | < 10 | 101 to 1000 | – | – | – |
| CN1CCN(c2ccc3cc2/C=C\c2ccc(S(C)(=O)=O)c(c2)Nc2nc(ncc2Cl)N3)CC1 [Example 18, (14Z)-6-Chloro-10-(methanesulfonyl)-17-(4-methylpiperazin-1-yl)-2,4,8,22-tetraazatetracyclo[14.3.1.1^3,7.1^9,13]docosa-1(20),3(22),4,6,9(21),10,12,14,16,18-decaene Trifluoroacetate (1:1)] | 10 to 100 | 101 to 1000 | 10 to 100 | – | – | – | – |
| COc1ccc2cc1Nc1nc(ncc1Cl)Nc1ccc(N3CCOCC3)c(c1)CC2 [Example 21, 6-Chloro-10-methoxy-17-(morpholin-4-yl)-2,4,8,22-tetraazatetracyclo[14.3.1.1^3,7.1^9,13]docosa-1(20),3(22),4,6,9(21),10,12,16,18-nonaene Trifluoroacetate (1:1)] | < 10 | > 10000 | > 10000 | > 10000 | – | – | – |
| Clc1cnc2nc1Nc1cccc(c1)/C=C\c1cc(ccc1OCCN1CCCC1)N2 [Example 22, (14Z)-6-Chloro-17-[2-(pyrrolidin-1-yl)ethoxy]-2,4,8,22-tetraazatetracyclo[14.3.1.1^3,7.1^9,13]docosa-1(20),3(22),4,6,9(21),10,12,14,16,18-decaene] | < 10 | 101 to 1000 | 101 to 1000 | 1000 to 10000 | – | – | – |
| Clc1cnc2nc1Nc1cccc(c1)CCc1cc(ccc1OCCN1CCCC1)N2 [Example 23, 6-Chloro-17-[2-(pyrrolidin-1-yl)ethoxy]-2,4,8,22-tetraazatetracyclo[14.3.1.1^3,7.1^9,13]docosa-1(20),3(22),4,6,9(21),10,12,16,18-nonaene Trifluoroacetate (1:1)] | < 10 | – | 10 to 100 | 101 to 1000 | – | – | – |
| Clc1cnc2nc1Nc1cccc(c1)/C=C\c1cc(ccc1N1CCOCC1)N2 [Example 24, (14Z)-6-Chloro-17-(morpholin-4-yl)-2,4,8,22-tetraazatetracyclo[14.3.1.1^3,7.1^9,13]docosa-1(20),3(22),4,6,9(21),10,12,14,16,18-decaene] | < 10 | – | > 10000 | > 10000 | > 3000 | – | – |
| Clc1cnc2nc1Nc1cccc(c1)CCc1cc(ccc1N1CCOCC1)N2 [Example 25, 6-Chloro-17-(morpholin-4-yl)-2,4,8,22-tetraazatetracyclo[14.3.1.1^3,7.1^9,13]docosa-1(20),3(22),4,6,9(21),10,12,16,18-nonaene] | < 10 | > 10000 | > 10000 | > 10000 | – | – | – |
| O[C@@H]1c2cccc(c2)Nc2nc(ncc2Cl)Nc2cccc(c2)[C@@H]1O [Example 26, (14R,15S)-6-chloro-2,4,8,22-tetraazatetracyclo[14.3.1.1^3,7.1^9,13]docosa-1(20),3(22),4,6,9(21),10,12,16,18-nonaene-14,15-diol] | < 10 | 1000 to 10000 | – | – | – | > 3000 | > 1000 |
| COc1cc(C2CCNCC2)c2cc1Nc1ncc(Cl)c(n1)Nc1cc(ccc1N(C)S(C)(=O)=O)CC2 [Example 28, 6-Chloro-10-(2-methanesulfonyl-methyl-amino)-17-(piperidin-4-yl)-19-methoxy-2,4,8,22-tetraazatetracyclo[14.3.1.1^3,7.1^9,13]docosa-1(20),3(22),4,6,9(21),10,12,16,18-nonaene Trifluoroacetate (1:1)] | 10 to 100 | < 10 | < 10 | 101 to 1000 | – | – | – |
| COc1c2cc(c3c1CC[C@@H](N1CCOCC1)CC3)CCc1ccc(N(C)S(C)(=O)=O)c(c1)Nc1nc(ncc1Cl)N2 [Example 29, N-[(20S)-6-chloro-24-methoxy-20-(morpholin-4-yl)-2,4,8,27-tetraazapentacyclo[14.8.1.1^3,7.1^9,13.0^17,23]heptacosa-1(25),3(27),4,6,9(26),10,12,16,23-nonaen-10-yl]N-methylmethanesulfonamide] | 101 to 1000 | 10 to 100 | 10 to 100 | – | – | > 3000 | – |
| FC(F)(F)c1cnc2nc1Nc1cccc(c1)CCc1cccc(c1)N2 [Example 30, 6-Trifluoromethyl-2,4,8,22-tetraazatetracyclo[14.3.1.1^3,7.1^9,13]docosa-1(20),3(22),4,6,9(21),10,12,16,18-nonaene Trifluoroacetate (1:1)] | 101 to 1000 | – | 1000 to 10000 | – | > 3000 | – | – |
